From patent publication US5700779A (Cortech, Inc., priority 1996, dated 1997) come the findings set out here.

Several values for one entry are separate records, joined by “and”; a condition that tells them apart may be missing. Equal entries are not always repeated.

Experiment [1] relates to response to Bradykinin. Put plainly: duration of action of i.v. bolus injections of CP-0597, rat blood pressure. It counts as in vivo. As for the experimental part:
(§1) Male Sprague-Dawley rats were anesthetized with pentobarbital and femoral arteries were cannulated for the recording of blood pressure. Both femoral veins in each animal were cannulated for the administration of test compounds. […] Following an equilibration period the specific experimental procedure was started.
At 3 μg/kg the response was ca. 50% inhibited and had returned to control by 30 minutes. At […] and 30 μg/kg the response was 100% inhibited with a 50% return to control level by 60 minutes and full recovery of response by 90 minutes.

Experiment [2] has as its system response to Bradykinin. Put plainly: duration of action of intravenously infused CP-0597, rabbit blood pressure. The experiment is classed as in vivo. Conditions: one hour (60 min) after 0.1 μg/kg/min infusion stopped. As for the experimental part: (§2) Male New Zealand White rabbits were anesthetized with pentobarbital and femoral arteries were cannulated for the recording of blood pressure. Cannulae were placed in the femoral veins for the bolus injection or continuous infusion of compounds. […] Following an equilibration period the specific experimental procedure was started.
CP-0597 (0.1 μg/kg/min) was intravenously infused for the above mentioned selectivity experiments.

Another experiment has as its target T1, BK1 receptors (Oryctolagus cuniculus, UniProt P48748).
T1 construct: upregulation of BK1 receptors in the vascular system; from tissue; host or cells: live anesthetized LPS-pretreated New Zealand White rabbit (vascular system)
T1 sequence (P48748 1-352): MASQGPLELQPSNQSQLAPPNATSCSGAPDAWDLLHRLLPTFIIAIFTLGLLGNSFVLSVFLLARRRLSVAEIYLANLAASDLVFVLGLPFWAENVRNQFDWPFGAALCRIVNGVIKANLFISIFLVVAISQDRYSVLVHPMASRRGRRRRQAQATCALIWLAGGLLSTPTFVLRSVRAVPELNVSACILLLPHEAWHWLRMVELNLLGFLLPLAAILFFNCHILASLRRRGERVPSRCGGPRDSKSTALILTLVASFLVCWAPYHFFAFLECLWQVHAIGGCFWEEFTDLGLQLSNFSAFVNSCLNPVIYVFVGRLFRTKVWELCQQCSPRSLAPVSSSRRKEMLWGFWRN
Put plainly: LPS-treated rabbit blood pressure BK1 ED50. It counts as in vivo. Particulars: for BK1 ED50: LPS-treated rabbit, i.v. infusion. As for the experimental part:
as §2
Stimulation of both pre-existing BK2 and induced BK1, receptors produces hypotension. […] Both agonists were tested in the absence and then in the presence of increasing doses of CP-0597 (1, 3, and 10 μg/kg/min).

Experiment [3] deals with response to Bradykinin. Put plainly: duration of action of subcutaneous CP-0597, rat blood pressure. Particulars: for inhibition of responses to Bradykinin, duration of action (s.c.): rat. The experiment is classed as in vivo. As for the experimental part:
as §1
Animals were then given subcutaneous injections of CP-0597 (1 and 3 mg/kg s.c.). […] At 1 mg/kg s.c. the responses were still 100% inhibited at 3 hours post injection. At 3 mg/kg s.c. the responses were still 100% inhibited at 5 hours post injection.

For experiment [4], the system named is blood pressure responses to vasoactive agents. Put plainly: selectivity of intravenous CP-0597, rabbit blood pressure. Conditions: 0.1 μg/kg/min i.v.; for responses to the other vasoactive agents after antagonist: acetylcholine, norepinephrine, substance p, angiotensin, angiotensin II. It counts as in vivo.
Description: as §2

The next experiment concerns the target T2, BK2 receptors (Oryctolagus cuniculus, UniProt Q28642).
T2 construct: from tissue; host or cells: live anesthetized New Zealand White rabbit (vascular system)
T2 sequence (Q28642 1-367): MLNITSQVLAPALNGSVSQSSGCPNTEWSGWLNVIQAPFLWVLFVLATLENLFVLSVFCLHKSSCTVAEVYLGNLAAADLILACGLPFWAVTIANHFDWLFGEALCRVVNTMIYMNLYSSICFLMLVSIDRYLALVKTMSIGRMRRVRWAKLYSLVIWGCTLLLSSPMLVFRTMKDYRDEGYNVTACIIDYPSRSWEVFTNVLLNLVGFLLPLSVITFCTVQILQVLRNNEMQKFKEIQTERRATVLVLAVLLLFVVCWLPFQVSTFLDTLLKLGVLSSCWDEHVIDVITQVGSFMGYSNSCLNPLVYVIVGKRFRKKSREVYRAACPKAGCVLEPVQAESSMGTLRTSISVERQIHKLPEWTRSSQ
The experiment can be described thus: rabbit blood pressure BK2 ED50. It counts as in vivo.
Description: as §2

The subject of experiment [5] is blood pressure responses to vasoactive agents. Put plainly: selectivity of subcutaneous CP-0597, rat blood pressure. Conditions: 1.0 mg/kg s.c., thirty minutes after injection. It counts as in vivo. As for the experimental part: as §1
Animals were then treated with CP-0597 (1.0 mg/kg s.c.). Thirty minutes after the s.c. injection each vasoactive agent was retested and compared to pre-antagonist responses.

Experiment [6] has as its target T3, bradykinin type 2 (BK2) receptors (Rattus norvegicus, UniProt P25023).
T3 construct: Uterine horns were removed, placed under a 1 g resting tension in 4 mL tissue baths; from tissue; host or cells: rat uterine horns (Sprague-Dawley, stilbesterol-pretreated)
T3 sequence (P25023 1-396): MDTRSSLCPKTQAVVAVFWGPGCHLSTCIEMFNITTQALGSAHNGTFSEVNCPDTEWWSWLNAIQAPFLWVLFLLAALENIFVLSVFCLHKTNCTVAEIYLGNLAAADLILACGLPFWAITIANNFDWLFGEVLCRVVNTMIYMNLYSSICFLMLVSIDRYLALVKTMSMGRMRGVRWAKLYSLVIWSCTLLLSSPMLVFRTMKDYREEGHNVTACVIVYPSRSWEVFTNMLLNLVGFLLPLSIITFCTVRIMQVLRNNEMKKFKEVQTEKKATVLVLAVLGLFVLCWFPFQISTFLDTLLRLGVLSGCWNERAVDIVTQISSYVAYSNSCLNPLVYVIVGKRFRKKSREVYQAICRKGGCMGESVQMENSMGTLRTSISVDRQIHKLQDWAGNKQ
The experiment can be described thus: standard rat uterus pA2 assay (in vitro B2 antagonist activity). Conditions: for activity in rat uterus functional tissue assay: summary of Table 1. As for the experimental part:
The standard rat uterus pA2 assay was conducted as follows:
Female Sprague-Dawley rats (200-250 g) were pretreated with stilbesterol (100 μg/kg) and killed 18 hours later by a blow on the head and exsanguinated. Uterine horns were removed, placed under a 1 g resting tension in 4 mL tissue baths containing De Jalon's solution at 31° C. and aerated. […] Antagonist potency was calculated according to the method of Arunlakshana and Schild (Arunlakshana, O., Schild, H. O., Br. J. Pharmacology 14 48-58 (1959)). […] The difference in pD2 values compared to concurrent control reflected the "percentage recovery" of agonist response.

For the next experiment, the system named is guinea pig ileum. The experiment can be described thus: activity on guinea pig ileum tissue.
Setting [7] is: i.v. bolus 10 μg/kg (text: 20%; Table 3: 10 μg/kg/min).
[8] abbreviates: i.v. bolus 30 μg/kg (Table 3: 30 μg/kg/min).

Regarding “D-Arg-Arg-Pro-Hyp-Gly-Thi-Ser-D-Tic-NChg-Arg [Compound 5]”, the “time of return to control (100% recovery)” value with response to Bradykinin [1] (i.v. bolus 3 μg/kg (Table 3: 3.0 μg/kg/min)) is not above 30 min. Besides, the “inhibition of response to Bradykinin” value in the experiment with response to Bradykinin [1] (setting [7]) and with response to Bradykinin [1] (setting [8]) was 100% in each case. The “time of 50% recovery” value in the experiment with response to Bradykinin [1] (setting [7]) and with response to Bradykinin [1] (setting [8]) was not above 60 min each time. Moreover, the “time of 100% recovery” value with response to Bradykinin [1] (setting [7]) and in the experiment with response to Bradykinin [1] (setting [8]) was not above 90 min in each case. In addition, the “inhibition of the response to Bradykinin, duration of action (i.v. infusion)” value with response to Bradykinin [2] worked out at 100%. Further, the “BK1 ED50” value on BK1 receptors is 1.7 nmol/kg/min; at BK1 receptors (des-Arg9 Bradykinin, listed as CP-0597) it was 2.9 ± 0.92 µg/kg/min and 2.9 µg/kg/min. The “BK1 blocking activity in live rabbits” value on BK1 receptors (rabbit) came to 2.9 µg/kg/min. Besides, the “inhibition of responses to Bradykinin, duration of action (s.c.)” value with response to Bradykinin [3] (1 mg/kg s.c., 3 hours post injection) turned out to be 100%; with response to Bradykinin [3] (3 mg/kg s.c., 5 hours post injection) it was 100%. For the same substance, the “blockage of agonist effect” value in the experiment with response to Bradykinin [3] (up to 5 hours after a subcutaneous dose (3 mg/Kg, rat)) is on record as “complete blockage”. The “response to Bradykinin after antagonist” value in experiment [4] and in experiment [5] was “antagonized” each time. Further, the “responses to the other vasoactive agents after antagonist” value is reported as “not affected” in experiment [4]; “unaffected” in [4] (listed as CP-0597); “not affected” in experiment [5] (1 mg/kg); “unaffected” in experiment [5] (listed as CP-0597, 1 mg/kg). Also, the “ED50 blocking bradykinin at BK2 receptors in live rabbits” value on BK2 receptors is 0.051 µg/kg/min. Further, the “BK2 ED50” value on BK2 receptors (i.v. infusion) amounted to 29.2 pmol/kg/min. Moreover, the “% Recovery” value in [6] (recovery of agonist response after washing 40 minutes following highest antagonist concentration) is on record as 71%. Further, in experiment [6], the “activity in rat uterus functional tissue assay” value is “highly potent antagonists”.

In the case of “D-Arg-Arg-Pro-Hyp-Gly-Thi-Ser-D-Tic-NMch-Arg [Compound 12]”, the “B2 pA2 (Rat Uterus)” value in experiment [6] (rat uterus, antagonist preincubated for 15 minutes) was “Agonist”. The “activity in rat uterus functional tissue assay” value in experiment [6] is “agonists”. In the experiment on guinea pig ileum, the “activity on guinea pig ileum” value is given as “antagonist activity”.
